Results published in patent US12581252B2, “Substituted pyrrolo[3,4-b]pyridines as PI3K-α inhibitors” (Relay Therapeutics, Inc., priority 2020, dated 2026).

Columns and labels:
H1047R PIK3CA enzyme = H1047R PIK3CA enzyme (Homo sapiens, UniProt P42336, H1047R); experiment: ADP-Glo Biochemical PIK3CA Kinase Assay
cells = conditions: Homo sapiens, MCF-10A, read-out: MCF10A IC50

H1047R PIK3CA enzyme, sequence (P42336 whole entry H1047R): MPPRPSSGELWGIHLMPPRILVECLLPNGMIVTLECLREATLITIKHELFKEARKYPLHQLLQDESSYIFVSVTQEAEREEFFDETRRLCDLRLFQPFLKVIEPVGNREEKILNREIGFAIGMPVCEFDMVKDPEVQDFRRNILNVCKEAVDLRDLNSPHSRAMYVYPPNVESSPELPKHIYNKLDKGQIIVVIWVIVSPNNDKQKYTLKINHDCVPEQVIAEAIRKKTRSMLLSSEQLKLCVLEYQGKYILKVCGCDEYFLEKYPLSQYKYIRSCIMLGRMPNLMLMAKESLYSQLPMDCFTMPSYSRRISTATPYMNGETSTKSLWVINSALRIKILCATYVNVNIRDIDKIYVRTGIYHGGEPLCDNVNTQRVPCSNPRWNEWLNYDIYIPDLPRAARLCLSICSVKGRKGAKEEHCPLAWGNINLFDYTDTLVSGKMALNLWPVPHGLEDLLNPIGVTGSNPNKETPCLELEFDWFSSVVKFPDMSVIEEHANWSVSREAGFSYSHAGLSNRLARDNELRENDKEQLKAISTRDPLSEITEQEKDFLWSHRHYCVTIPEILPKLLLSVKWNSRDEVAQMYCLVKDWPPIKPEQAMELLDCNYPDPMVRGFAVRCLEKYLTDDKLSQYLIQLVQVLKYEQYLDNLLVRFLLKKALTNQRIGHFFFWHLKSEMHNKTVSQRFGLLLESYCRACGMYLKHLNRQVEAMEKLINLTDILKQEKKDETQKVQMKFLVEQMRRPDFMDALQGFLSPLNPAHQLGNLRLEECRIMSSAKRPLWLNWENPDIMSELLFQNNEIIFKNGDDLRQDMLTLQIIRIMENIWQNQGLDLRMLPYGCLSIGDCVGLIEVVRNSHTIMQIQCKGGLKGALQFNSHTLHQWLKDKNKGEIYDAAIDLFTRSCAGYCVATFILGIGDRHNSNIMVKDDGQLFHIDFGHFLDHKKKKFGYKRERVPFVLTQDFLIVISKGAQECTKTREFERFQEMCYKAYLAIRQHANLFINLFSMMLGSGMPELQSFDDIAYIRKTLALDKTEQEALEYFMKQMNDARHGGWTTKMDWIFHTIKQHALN
H1047R PIK3CA enzyme, sequence (P27986 whole entry partner): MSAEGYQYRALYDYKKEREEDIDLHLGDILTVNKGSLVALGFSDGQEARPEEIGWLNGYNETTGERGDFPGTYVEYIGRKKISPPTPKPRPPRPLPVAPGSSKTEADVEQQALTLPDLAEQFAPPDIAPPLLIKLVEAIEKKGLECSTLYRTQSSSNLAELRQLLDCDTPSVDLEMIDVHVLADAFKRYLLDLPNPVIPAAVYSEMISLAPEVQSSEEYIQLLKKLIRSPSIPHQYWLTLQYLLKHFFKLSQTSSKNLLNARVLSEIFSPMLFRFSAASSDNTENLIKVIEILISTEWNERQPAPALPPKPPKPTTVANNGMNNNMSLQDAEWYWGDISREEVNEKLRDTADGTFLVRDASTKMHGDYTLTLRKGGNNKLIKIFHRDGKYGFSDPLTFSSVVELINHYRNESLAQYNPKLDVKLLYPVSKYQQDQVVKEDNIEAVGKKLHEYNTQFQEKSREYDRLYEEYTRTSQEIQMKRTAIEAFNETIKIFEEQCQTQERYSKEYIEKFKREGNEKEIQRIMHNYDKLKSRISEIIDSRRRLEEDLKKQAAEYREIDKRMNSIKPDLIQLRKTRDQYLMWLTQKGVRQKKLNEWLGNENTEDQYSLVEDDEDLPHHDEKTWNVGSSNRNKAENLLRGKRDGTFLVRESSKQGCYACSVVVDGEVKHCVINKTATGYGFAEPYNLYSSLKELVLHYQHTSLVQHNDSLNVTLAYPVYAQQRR

Compound: O=C1NCc2cc(-c3cc(NC(=O)c4cc(F)cc(C(F)(F)F)c4)c4c(c3)C(=O)NC4c3cc(F)ccc3Cl)ccc2O1 (stereo not shown) [Compound I-981]
- IC50 (H1047R PIK3CA enzyme): ≤ 100 nM
- IC50 (cells): < 1000 nM

Compound: O=C1NC(c2cc(F)ccc2Cl)c2c(NC(=O)C34CC5CC(C3)CC(C(F)(F)F)(C5)C4)cccc21 (stereo not shown) [Compound I-1073]
- IC50 (H1047R PIK3CA enzyme): ≤ 100 nM
- IC50 (cells): < 1000 nM

Compound: O=C(Nc1cc(-c2cccn3nccc23)cc2c1C(c1cc(F)ccc1Cl)NC2=O)c1cc(F)cc(C(F)(F)F)c1 (stereo not shown) [Compound I-983]
- IC50 (H1047R PIK3CA enzyme): ≤ 100 nM
- IC50 (cells): < 1000 nM

Compound: Cc1ccccc1C1NC(=O)c2cc(CS(C)(=O)=O)cc(NC(=O)c3nsc4ccccc34)c21 (stereo not shown) [Compound I-202, N-(6-((Methylsulfonyl)methyl)-1-oxo-3-(o-tolyl)isoindolin-4-yl)benzo[d]isothiazole-3-carboxamide]
- IC50 (H1047R PIK3CA enzyme): ≤ 100 nM
- IC50 (cells): < 1000 nM

Compound: O=C1N[C@@H](c2cc(F)ccc2Cl)c2c(NC(=O)N3C[C@](O)(C(F)(F)F)c4cc(F)ccc43)cc(C3COC3)cc21 (single isomer, unassigned) [Compound I-2655]
- IC50 (H1047R PIK3CA enzyme): ≤ 100 nM
- IC50 (cells): < 1000 nM

Compound: O=C1N[C@@H](c2cc(F)ccc2Cl)c2c(NC(=O)[C@H]3CCC[C@@H](C(F)(F)F)C3)cc(-c3ccc4ncnn4c3)cc21 [Compound I-2029]
- IC50 (H1047R PIK3CA enzyme): ≤ 100 nM
- IC50 (cells): < 1000 nM

Compound: Cn1cc(Nc2cc(NC(=O)c3cc(F)cc(C(F)(F)F)c3)c3c(c2)C(=O)N[C@H]3c2cc(F)ccc2Cl)cn1 (single isomer, unassigned) [Compound I-997]
- IC50 (H1047R PIK3CA enzyme): ≤ 100 nM
- IC50 (cells): < 1000 nM

Compound: O=C1N[C@@H](c2cc(F)ccc2Cl)c2c(NC(=O)N3C[C@@H](O)c4cc(F)ccc43)cc(-c3cnn(C(F)F)c3)cc21 (single isomer, unassigned) [Compound I-2477]
- IC50 (H1047R PIK3CA enzyme): ≤ 100 nM
- IC50 (cells): < 1000 nM

Compound: Cc1noc(C)c1Nc1cc(NC(=O)c2cc(F)cc(C(F)(F)F)c2)c2c(c1)C(=O)NC2c1cc(F)ccc1Cl (stereo not shown) [Compound I-923]
- IC50 (H1047R PIK3CA enzyme): ≤ 100 nM
- IC50 (cells): < 1000 nM

Compound: Cc1nc2ccc(-c3cc(NC(=O)c4cc(F)cc(C(F)(F)F)c4)c4c(c3)C(=O)NC4c3cc(F)ccc3Cl)cc2o1 (stereo not shown) [Compound I-984]
- IC50 (H1047R PIK3CA enzyme): ≤ 100 nM
- IC50 (cells): < 1000 nM

Compound: N#CC1(CNc2cc(NC(=O)c3cc(F)cc(C(F)(F)F)c3)c3c(c2)C(=O)N[C@H]3c2cc(F)ccc2Cl)CC1 [Compound I-868]
- IC50 (H1047R PIK3CA enzyme): ≤ 100 nM
- IC50 (cells): < 1000 nM

Compound: O=C(Nc1cc(-c2cnn(C3COC3)c2)cc2c1C(c1cc(F)ccc1Cl)NC2=O)c1cc(F)cc(C(F)(F)F)c1 (stereo not shown) [Compound I-904]
- IC50 (H1047R PIK3CA enzyme): ≤ 100 nM
- IC50 (cells): < 1000 nM

Compound: O=C(Nc1cc(-c2nc3cnccc3[nH]2)cc2c1C(c1cc(F)ccc1Cl)NC2=O)c1cc(F)cc(C(F)(F)F)c1 (stereo not shown) [Compound I-1025]
- IC50 (H1047R PIK3CA enzyme): ≤ 100 nM
- IC50 (cells): 1000 to 5000 nM

Compound: CC(C)(O)c1cc(NC(=O)c2cc(F)cc(C(F)(F)F)c2)c2c(c1)C(=O)N[C@H]2c1cc(F)ccc1Cl [Compound I-189]
- IC50 (H1047R PIK3CA enzyme): ≤ 100 nM
- IC50 (cells): < 1000 nM

Compound: O=C1Cc2ccc(-c3cc(NC(=O)c4cc(F)cc(C(F)(F)F)c4)c4c(c3)C(=O)NC4c3cc(F)ccc3Cl)cc2N1 (stereo not shown) [Compound I-982]
- IC50 (H1047R PIK3CA enzyme): ≤ 100 nM
- IC50 (cells): < 1000 nM

Compound: COc1nc(-c2cc(NC(=O)c3cc(F)cc(C(F)(F)F)c3)c3c(c2)C(=O)NC3c2cc(F)ccc2Cl)cs1 (stereo not shown) [Compound I-1066]
- IC50 (H1047R PIK3CA enzyme): ≤ 100 nM
- IC50 (cells): 1000 to 5000 nM

Compound: CNc1cc(NC(=O)c2csc3ccccc23)c2c(c1)C(=O)NC2c1ccccc1C (stereo not shown) [Compound I-39]
- IC50 (H1047R PIK3CA enzyme): ≤ 100 nM
- IC50 (cells): 1000 to 5000 nM

Compound: Nc1ncc(-c2cc(NC(=O)c3cc(F)cc(C(F)(F)F)c3)c3c(c2)C(=O)N[C@@H]3c2cc(F)ccc2Cl)cn1 (stereo in doubt) [Compound I-1003]
- IC50 (H1047R PIK3CA enzyme): ≤ 100 nM
- IC50 (cells): < 1000 nM

Compound: O=C1NC(c2cc(F)ccc2Cl)c2c(NC(=O)N3CC(O)(C(F)F)c4cc(F)ccc43)cccc21 (mixture of isomers) [Compound I-2488]
- IC50 (H1047R PIK3CA enzyme): ≤ 100 nM
- IC50 (cells): 1000 to 5000 nM

Compound: CNc1cc(NC(=O)N2CC(O)(C(F)(F)F)c3cc(F)ccc32)c2c(c1C#N)C(=O)NC2c1cc(F)ccc1Cl (stereo not shown) [Compound I-2587]
- IC50 (H1047R PIK3CA enzyme): ≤ 100 nM
- IC50 (cells): 1000 to 5000 nM
